This note sets out measurements from patent US10829491B2, “Pyrimido[5,4-B]indolizine or pyrimido[5,4-B]pyrrolizine compound, preparation method and use thereof” (SHANGHAI INSTITUTE OF MATERIA MEDICA, CHINESE ACADEMY OF …, priority 2016, dated 2020).

Where two headings read alike, the source gives them in different places. Bounds are passed on as bounds.

The subject of experiment [1] is human B lymphoma Ramos cells. The experiment is described as follows: In vitro proliferation inhibition of Ramos cells (MTT). Format: cell-based. The settings on record: for IC50: Homo sapiens, Ramos cells, 48 hours, MTT. As for the experimental part: (§1) Cells were seeded at 10000-15000/well into a 96-well culture plate, different concentrations of a test compound were added to each well (3 replicate-wells for each concentration), and blank control, positive compound control and negative control were provided. 48 hours after the administration of the drugs, […] of MTT (5 mg/ml) was added, and the plate was incubated at 37° C. for 4 h, and then […] of a triad solution (10% SDS, 5% isobutanol, 0.01 M HCl) was added. The resultant was cultured at 37° C. overnight, and the OD value was measured at a wavelength of 570 nm using a wavelength-tunable microplate reader ELISA SPECTRA MAX 190. […] The IC50 value was calculated by fitting the inhibition curve using a four-parameter method. The experiment was repeated 3 times independently.

For experiment [2], the system named is human diffuse large B lymphoma TMD8 cells. Kind of experiment: In vitro proliferation inhibition of TMD8 cells (MTT). The format is cell-based. The settings on record: 48 hours, read-out: IC50 for the inhibition TMD of cells. The protocol: as §1, with “added.” for “added. The resultant was cultured at 37° C. overnight, and the OD value was measured at a wavelength of 570 nm using a wavelength-tunable microplate reader ELISA SPECTRA MAX 190.”

The target in experiment [3] is BTK tyrosine kinase protein (Homo sapiens (Human), UniProt Q06187). Kind of experiment: Inhibitory activity against Bruton kinase (BTK) at molecular level (ELISA). The format is biochemical. As for the experimental part: Poly(Glu, Tyr) 4:1 as a substrate for enzyme catalyzed reaction was diluted with potassium-free PBS (10 mM sodium phosphate buffer, 150 mM NaCl, pH 7.2-7.4) to […] to coat a ELISA plate. The plate was cultured at 37° C. for 12-16 h, washed with 200 μL/well of T-PBS (PBS containing 0.1% of Tween-20) three times, and dried in an oven at 37° C. for 1-2 h. Into the above ELISA plate coated with the substrate, an ATP solution diluted with a reaction buffer (50 mM HEPES, pH 7.4, 50 mM MgCl2, 5 mM MnCl2, 0.2 mM Na3VO4, 1 mM DTT) was first added at 50 μL/well (concentration of 10 μM). Then, a test compound diluted by 1% DMSO to a suitable concentration was added (10 μL/well), and negative control well and positive compound control well were provided separately. Finally, the reaction was initiated by adding BTK tyrosine kinase protein diluted in 40 μL of reaction buffer.
The above reaction system was placed on a shaker (100 rpm) at 37° C. for 1 h, then washed with T-PBS for three times, primary antibody PY99 (Cell Signaling Technology) was added at 100 μL/well, and the reaction was conducted on the shaker at 37° C. for 0.5 h. After the plate was washed with T-PBS, secondary antibody horseradish peroxidase-labeled goat anti-mouse IgG was added at 100 μL/well, and the reaction was conducted on the shaker at 37° C. for 0.5 h. After the plate was washed with T-PBS, 2 mg/mL of OPD developing solution was added at 100 μL/well, and the reaction was conducted in the dark at 25° C. for 1 to 10 minutes. Then the reaction was quenched by adding 2 M H2SO4 at 50 μL/well. The data were read on a wavelength-tunable microplate reader ELISA SPECTRA MAX 190 at a wavelength of 490 nm.
IC50 was calculated by fitting the inhibition curve using a four-parameter method.

Setting [4] is: BTK kinase ELISA, ATP 10 μM, read-out: IC50.

BTK tyrosine kinase protein, sequence (Q06187 whole entry): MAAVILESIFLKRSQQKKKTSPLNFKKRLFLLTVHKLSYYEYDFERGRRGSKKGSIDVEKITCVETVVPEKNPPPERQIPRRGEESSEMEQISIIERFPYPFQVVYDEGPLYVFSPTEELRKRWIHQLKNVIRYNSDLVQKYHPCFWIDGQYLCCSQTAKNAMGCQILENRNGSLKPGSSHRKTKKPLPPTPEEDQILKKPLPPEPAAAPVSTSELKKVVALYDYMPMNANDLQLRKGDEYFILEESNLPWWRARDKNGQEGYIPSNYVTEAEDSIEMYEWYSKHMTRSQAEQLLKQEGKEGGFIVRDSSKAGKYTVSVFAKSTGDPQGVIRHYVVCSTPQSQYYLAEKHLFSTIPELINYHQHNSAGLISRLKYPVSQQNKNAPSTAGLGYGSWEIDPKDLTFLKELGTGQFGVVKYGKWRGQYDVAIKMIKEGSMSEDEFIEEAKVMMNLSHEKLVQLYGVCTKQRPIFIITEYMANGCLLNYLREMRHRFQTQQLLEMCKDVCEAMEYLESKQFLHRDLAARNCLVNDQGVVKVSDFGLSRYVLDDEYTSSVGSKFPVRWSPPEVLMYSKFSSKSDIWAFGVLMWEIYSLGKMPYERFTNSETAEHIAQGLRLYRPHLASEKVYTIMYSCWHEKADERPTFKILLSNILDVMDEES

As usually defined, the IC50 is the point on the concentration scale where inhibition reaches its midpoint. On to `C=CC(=O)NC1CCc2c(-c3ccc(Oc4ccccc4)cc3)c3c(N)ncnc3n2C1` (racemic) [Compound S3, N-(4-amino-5-(4-phenoxyphenyl)-6,7,8,9-tetrahydropyrimido[5,4-b]indolizine-8-yl)acrylamide], for which, in experiment [1], the IC50 was determined as 11400 ± 800 nM.
Turning to `C=CC(=O)N[C@@H]1CCc2c(-c3ccc(Oc4ccccc4)cc3)c3c(N)ncnc3n2C1` [Compound S1, (R)—N-(4-amino-5-(4-phenoxyphenyl)-6,7,8,9-tetrahydropyrimido[5,4-b]indolizine-8-yl)acrylamide], the IC50 in experiment [1] came out at 94700 ± 45100 nM; in experiment [2], 5.8 nM. The “cell activity against human B lymphoma Ramos cells” value in experiment [1] (qualitative statement) was “low cell activity”.
With `CC(C)(C)C=C(C#N)C(=O)N[C@@H]1CCc2c(-c3ccc(Oc4ccccc4)cc3)c3c(N)ncnc3n2C1` [Compound S4, (R)—N-(4-amino-5-(4-phenoxyphenyl)-6,7,8,9-tetrahydropyrimido[5,4-b]indolizine-8-yl)-2-cyano-4,4-dimethylpent-2-enamide], the IC50 in experiment [3] (setting [4]) was above 100 nM.
For `CN(C)C/C=C/C(=O)N[C@@H]1CCc2c(-c3ccc(Oc4ccccc4)cc3)c3c(N)ncnc3n2C1` [Compound S5, (R,E)-N-(4-amino-5-(4-phenoxyphenyl)-6,7,8,9-tetrahydropyrimido[5,4-b]indolizine-8-yl)-4-(dimethylamino)but-2-enamide], the figures for the IC50 in experiment [1] and in experiment [3] (setting [4]) were 6600 ± 2100 nM and below 1 nM, respectively.
In the same order, the values of `C=CC(=O)NCC(=O)N[C@@H]1CCc2c(-c3ccc(Oc4ccccc4)cc3)c3c(N)ncnc3n2C1` [Compound S6, (R)—N-(2-((4-amino-5-(4-phenoxyphenyl)-6,7,8,9-tetrahydropyrimido[5,4-b]indolizine-8-yl)amino)-2-oxoethyl)acrylamide] are 5500 ± 1000 nM and 1 to 10 nM.
Take `C=CC(=O)NC(C)C(=O)N[C@@H]1CCc2c(-c3ccc(Oc4ccccc4)cc3)c3c(N)ncnc3n2C1` (stereo partly drawn) [Compound S7, N-(1-(((R)-4-amino-5-(4-phenoxyphenyl)-6,7,8,9-tetrahydropyrimido[5,4-b]indolizine-8-yl)imino)-1-oxoprop-2-yl) acrylamide]: the IC50 in experiment [3] (setting [4]) was 10 to 100 nM.
`C=CC(=O)NC1(C(=O)N[C@@H]2CCc3c(-c4ccc(Oc5ccccc5)cc4)c4c(N)ncnc4n3C2)CC1` [Compound S8, (R)-1-acrylamido-N-(4-amino-5-(4-phenoxyphenyl)-6,7,8,9-tetrahydropyrimido[5,4-b]indolizine-8-yl)cyclopropanecarboxamide]: the IC50 in experiment [3] (setting [4]) is above 100 nM.
The same measure, in the same setting: with `C=CS(=O)(=O)N[C@@H]1CCc2c(-c3ccc(Oc4ccccc4)cc3)c3c(N)ncnc3n2C1` [Compound S9, (R)—N-(4-amino-5-(4-phenoxyphenyl)-6,7,8,9-tetrahydropyrimido[5,4-b]indolizine-8-yl)vinylsulfamide] the figure was 10 to 100 nM.
For the compound `CC#CC(=O)N[C@@H]1CCc2c(-c3ccc(Oc4ccccc4)cc3)c3c(N)ncnc3n2C1` [Compound S10, (R)—N-(4-amino-5-(4-phenoxyphenyl)-6,7,8,9-tetrahydropyrimido[5,4-b]indolizine-8-yl)But-2-ynylamide], the IC50 is 8720 ± 8580 nM in experiment [1], 30 nM in experiment [2] and 1 to 10 nM in experiment [3].
Turning to `C=CC(=O)N[C@@H]1CCc2c(-c3ccc(Oc4ccc(F)cc4)cc3)c3c(N)ncnc3n2C1` [Compound S11, (R)—N-(4-amino-5-(4-(4-fluorophenoxy)phenyl)-6,7,8,9-tetrahydropyrimido[5,4-b]indolizine-8-yl)acrylamide], the concentration for half-maximal inhibition (IC50) in experiment [3] (setting [4]) was below 1 nM.
Still for that read-out and setting: the result for `C=CC(=O)N[C@@H]1CCc2c(-c3ccc(Oc4ccc(C(F)(F)F)cc4)cc3)c3c(N)ncnc3n2C1` [Compound S12, (R)—N-(4-amino-5-(4-(4-(trifluoromethyl)phenoxy)phenyl)-6,7,8,9-tetrahydropyrimido[5,4-b]indolizine-8-yl)acrylamide] reads below 1 nM.
As to `C=CC(=O)N[C@@H]1CCc2c(-c3ccc(C(=O)Nc4ccccn4)cc3)c3c(N)ncnc3n2C1` [Compound S13, (R)-4-(8-acrylamido-4-amino-6,7,8,9-tetrahydropyrimido[5,4-b]indolizine-5-yl)-N-(pyridin-2-yl)benzamide], in experiment [3] (setting [4]), the IC50 was in the range of 1 to 10 nM.
On the same count and under the same terms, the result for `CC#CC(=O)N[C@@H]1CCc2c(-c3ccc(C(=O)Nc4ccccn4)cc3)c3c(N)ncnc3n2C1` [Compound S14, (R)-4-(4-amino-8-(but-2-ynylamide)-6,7,8,9-tetrahydropyrimido[5,4-b]indolizine-5-yl)-N-(pyridin-2-yl)benzamide] reads 1 to 10 nM; that for `C=CC(=O)N[C@@H]1CCc2c(-c3ccc(C(=O)Nc4ccc(F)cn4)cc3)c3c(N)ncnc3n2C1` [Compound S15, (R)-4-(8-acrylamido-4-amino-6,7,8,9-tetrahydropyrimido[5,4-b]indolizine-5-yl)-N-(5-fluoropyridin-2-yl)benzamide], 1 to 10 nM; that for `C=CC(=O)N[C@@H]1CCc2c(-c3ccc(C(=O)Nc4cc(C(F)(F)F)ccn4)cc3)c3c(N)ncnc3n2C1` [Compound S16, (R)-4-(8-acrylamido-4-amino-6,7,8,9-tetrahydropyrimido[5,4-b]indolizine-5-yl)-N-(4-(trifluoromethyl)pyridin-2-yl)benzamide], 1 to 10 nM.
Turning to `C=CC(=O)N[C@@H]1CCc2c(-c3ccc(C(=O)N[C@@H](COC)c4ccccc4)cc3)c3c(N)ncnc3n2C1` [Compound S17, 4-((R)-8-acrylamido-4-amino-6,7,8,9-tetrahydropyrimido[5,4-b]indolizine-5-yl)-N—((R)-2-methoxy-1-phenylethyl)benzamide], the IC50 in experiment [3] (setting [4]) was in the range of 1 to 10 nM.
As to `C=CC(=O)N[C@H]1Cn2c(c(-c3ccc(Oc4ccccc4)cc3)c3c(N)ncnc32)C1=C` [Compound S18, (R)—N-(4-amino-6-methylidene-5-(4-phenoxyphenyl)-7,8-dihydro-6H-pyrimido[5,4-b]pyrrolizin-7-yl)acrylamide], the IC50 in experiment [3] (setting [4]) lay within 1 to 10 nM.
Turning to `C=C1c2c(-c3ccc(Oc4ccccc4)cc3)c3c(N)ncnc3n2C[C@@H]1NC(=O)C#CC` [Compound S19, (R)—N-(4-amino-6-methylidene-5-(4-phenoxyphenyl)-7,8-dihydro-6H-pyrimido[5,4-b]pyrrolizin-7-yl)but-2-ynylamide], the IC50 in experiment [1] is 16900 ± 7900 nM; in experiment [3], below 1 nM.
As for `C=CC(=O)N[C@H]1Cn2c(c(-c3ccc(C(=O)Nc4ccccn4)cc3)c3c(N)ncnc32)C1=C` [Compound S20, (R)-4-(7-acrylamido-4-amino-6-methylidene-7,8-dihydro-6H-pyrimido[5,4-b]pyrrolizin-5-yl)-N-(pyridin-2-yl)benzamide], the IC50 in experiment [3] (setting [4]) was 1 to 10 nM.
Still for that read-out and setting: with `C=CC(=O)N[C@H]1Cn2c(c(-c3ccc(Oc4ccccc4)cc3)c3c(N)ncnc32)C1C` (stereo partly drawn) [Compound S21, N-((7R)-4-amino-6-methyl-5-(4-phenoxyphenyl)-7,8-dihydro-6H-pyrimido[5,4-b]pyrrolizin-7-yl)acrylamide] the figure was 1 to 10 nM.
On the same count and under the same terms, with `C=CC(=O)N[C@H]1Cn2c(c(-c3ccc(C(=O)Nc4ccccn4)cc3)c3c(N)ncnc32)C1C` (stereo partly drawn) [Compound S22, 4-((7R)-7-acrylamido-4-amino-6-methyl-7,8-dihydro-6H-pyrimido[5,4-b]pyrrolizin-5-yl)-N-(pyridin-2-yl)benzamide] the figure was 1 to 10 nM.
`C=CC(=O)N1CCC[C@@H](n2nc(-c3ccc(Oc4ccccc4)cc3)c3c(N)ncnc32)C1` [Ibrutinib, reference compound]: the values for the IC50 in experiment [1] and in experiment [2] were around 8530 nM and 4.5 nM, respectively.
